US11654136B2, “Phosphoinositide 3-kinase inhibitor with a zinc binding moiety” (Curis, Inc., priority 2011, dated 2023)

Assays:
Assay type in all cases: cell-based
HCT116 = assay: Cell proliferation assay HCT116; details: Homo sapiens, HCT-116, Colon, 72 hours, read-out: IC50 antiproliferative activity
Procedure: (§1) Growth inhibition was accessed by adenosine triphosphate (ATP) content assay using Promega CellTiter-Glo kit. Promega CellTiter-Glo kit is an ATP monitoring system based on firefly luciferase. Briefly, 16 μl of mammalian cell lysis and substrate solution was added to 84 µl of culture medium per well to lyse the cells and stabilize the ATP. The mixture was shaken and incubated for 30 minutes and subsequently the luminescence was measured. IC50 values were calculated using PRISM software (GraphPad Software) with sigmoidal dose-response curve fitting.

SW403 = assay: Cell proliferation assay SW403; details: Homo sapiens, SW-403, Colon, 72 hours, read-out: IC50 antiproliferative activity
Procedure: as §1

SW620 = assay: Cell proliferation assay SW620; details: Homo sapiens, SW-620, Colon, 72 hours, read-out: IC50 antiproliferative activity
Procedure: as §1

SWI-116 = assay: Cell proliferation assay SWI-116; details: Homo sapiens, Colon, 72 hours, read-out: IC50 antiproliferative activity
Procedure: as §1

H358 = assay: Cell proliferation assay H358; details: Homo sapiens, NCI-H358, NSCLC, 72 hours, read-out: IC50 antiproliferative activity
Procedure: as §1

H292 = assay: Cell proliferation assay H292; details: Homo sapiens, NCI-H292, NSCLC, 72 hours, read-out: IC50 antiproliferative activity
Procedure: as §1

H2122 = assay: Cell proliferation assay H2122; details: Homo sapiens, NCI-H2122, NSCLC, 72 hours, read-out: IC50 antiproliferative activity
Procedure: as §1

H460 = assay: Cell proliferation assay H460; details: Homo sapiens, NCI-H460, NSCLC, 72 hours, read-out: IC50 antiproliferative activity
Procedure: as §1

A549 = assay: Cell proliferation assay A549; details: Homo sapiens, NSCLC, 72 hours, read-out: IC50 antiproliferative activity
Procedure: as §1

MiaPaca2 = assay: Cell proliferation assay MiaPaca2; details: Homo sapiens, MIA PaCa-2, Pancreas, 72 hours, read-out: IC50 antiproliferative activity
Procedure: as §1

CFPAC-1 = assay: Cell proliferation assay CFPAC-1; details: Homo sapiens, Pancreas, 72 hours, read-out: IC50 antiproliferative activity
Procedure: as §1

PANC-1 = assay: Cell proliferation assay PANC-1; details: Homo sapiens, Pancreas, 72 hours, read-out: IC50 antiproliferative activity
Procedure: as §1

SW1990 = assay: Cell proliferation assay SW1990; details: Homo sapiens, Pancreas, 72 hours, read-out: IC50 antiproliferative activity
Procedure: as §1

HCC1500 = assay: Cell proliferation assay HCC1500; details: Homo sapiens, Breast, 72 hours, read-out: IC50 antiproliferative activity
Procedure: as §1

HCC1806 = assay: Cell proliferation assay HCC1806; details: Homo sapiens, Breast, 72 hours, read-out: IC50 antiproliferative activity
Procedure: as §1

MDA-MB-231 = assay: Cell proliferation assay MDA-MB-231; details: Homo sapiens, Breast, 72 hours, read-out: IC50 antiproliferative activity
Procedure: as §1

SKBr3 = assay: Cell proliferation assay SKBr3; details: Homo sapiens, SK-BR-3, Breast, 72 hours, read-out: IC50 antiproliferative activity
Procedure: as §1

BT474 = assay: Cell proliferation assay BT474; details: Homo sapiens, BT-474, Breast, 72 hours, read-out: IC50 antiproliferative activity
Procedure: as §1

UACC-893 = assay: Cell proliferation assay UACC-893; details: Homo sapiens, Breast, 72 hours, read-out: IC50 antiproliferative activity
Procedure: as §1

MDA-MB-453 = assay: Cell proliferation assay MDA-MB-453; details: Homo sapiens, Breast, 72 hours, read-out: IC50 antiproliferative activity
Procedure: as §1

MDA-MB-468 = assay: Cell proliferation assay MDA-MB-468; details: Homo sapiens, Breast, 72 hours, read-out: IC50 antiproliferative activity
Procedure: as §1

MOLT-4 = assay: Cell proliferation assay MOLT-4; details: Homo sapiens, ALL, 72 hours, read-out: IC50 antiproliferative activity
Procedure: as §1

SUP-B15 = assay: Cell proliferation assay SUP-B15; details: Homo sapiens, ALL, 72 hours, read-out: IC50 antiproliferative activity
Procedure: as §1

HL-60 = assay: Cell proliferation assay HL-60; details: Homo sapiens, AML, 72 hours, read-out: IC50 antiproliferative activity
Procedure: as §1

THP-1 = assay: Cell proliferation assay THP-1; details: Homo sapiens, AML, 72 hours, read-out: IC50 antiproliferative activity
Procedure: as §1

MV-4-11 = assay: Cell proliferation assay MV-4-11; details: Homo sapiens, MV4-11, AML, 72 hours, read-out: IC50 antiproliferative activity
Procedure: as §1

Pfeiffer = assay: Cell proliferation assay Pfeiffer; details: Homo sapiens, B-Cell Lymphoma, 72 hours, read-out: IC50 antiproliferative activity
Procedure: as §1

Raji = assay: Cell proliferation assay Raji; details: Homo sapiens, B-Cell Lymphoma, 72 hours, read-out: IC50 antiproliferative activity
Procedure: as §1

RL = assay: Cell proliferation assay RL; details: Homo sapiens, B-Cell Lymphoma, 72 hours, read-out: IC50 antiproliferative activity
Procedure: as §1

Granta 519 = assay: Cell proliferation assay Granta 519; details: Homo sapiens, B-Cell Lymphoma, 72 hours, read-out: IC50 antiproliferative activity
Procedure: as §1

Su-DHL4 = assay: Cell proliferation assay Su-DHL4; details: Homo sapiens, SU-DHL-4, B-Cell Lymphoma, 72 hours, read-out: IC50 antiproliferative activity
Procedure: as §1

Daudi = assay: Cell proliferation assay Daudi; details: Homo sapiens, B-Cell Lymphoma, 72 hours, read-out: IC50 antiproliferative activity
Procedure: as §1

MJ = assay: Cell proliferation assay MJ; details: Homo sapiens, T-Cell Lymphoma, 72 hours, read-out: IC50 antiproliferative activity
Procedure: as §1

HuT78 = assay: Cell proliferation assay HuT78; details: Homo sapiens, T-Cell Lymphoma, 72 hours, read-out: IC50 antiproliferative activity
Procedure: as §1

K562 = assay: Cell proliferation assay K562; details: Homo sapiens, CML, 72 hours, read-out: IC50 antiproliferative activity
Procedure: as §1

RPMI-8226 = assay: Cell proliferation assay RPMI-8226; details: Homo sapiens, Multiple Myeloma, 72 hours, read-out: IC50 antiproliferative activity
Procedure: as §1

OPM-2 = assay: Cell proliferation assay OPM-2; details: Homo sapiens, Multiple Myeloma, 72 hours, read-out: IC50 antiproliferative activity
Procedure: as §1

ARH77 = assay: Cell proliferation assay ARH77; details: Homo sapiens, ARH-77, Multiple Myeloma, 72 hours, read-out: IC50 antiproliferative activity
Procedure: as §1

CS(=O)(=O)N1CCN(Cc2cc3nc(-c4cccc5[nH]ncc45)nc(N4CCOCC4)c3s2)CC1 [GDC-0941, reference compound]
IC50 (HCT116): 1000 to 10000 nM | IC50 (SW403): > 10000 nM | IC50 (SW620): > 10000 nM | IC50 (SWI-116): > 10000 nM | IC50 (H358): 1000 to 10000 nM | IC50 (H292): 1000 to 10000 nM | IC50 (H2122): 1000 to 10000 nM | IC50 (H460): > 10000 nM | IC50 (A549): 1000 to 10000 nM | IC50 (MiaPaca2): > 10000 nM | IC50 (CFPAC-1): > 10000 nM | IC50 (PANC-1): 1000 to 10000 nM | IC50 (SW1990): > 10000 nM | IC50 (HCC1500): > 10000 nM | IC50 (HCC1806): > 10000 nM | IC50 (MDA-MB-231): > 10000 nM | IC50 (SKBr3): > 10000 nM | IC50 (BT474): 100 to 1000 nM | IC50 (UACC-893): 1000 to 10000 nM | IC50 (MDA-MB-453): 100 to 1000 nM | IC50 (MDA-MB-468): 100 to 1000 nM | IC50 (MOLT-4): 100 to 1000 nM | IC50 (SUP-B15): 1000 to 10000 nM | IC50 (HL-60): 100 to 1000 nM | IC50 (THP-1): 1000 to 10000 nM | IC50 (MV-4-11): 1000 to 10000 nM | IC50 (Pfeiffer): 100 to 1000 nM | IC50 (Raji): > 10000 nM | IC50 (RL): 1000 to 10000 nM | IC50 (Granta 519): > 10000 nM | IC50 (Su-DHL4): 100 to 1000 nM | IC50 (Daudi): > 10000 nM | IC50 (MJ): > 10000 nM | IC50 (HuT78): 100 to 1000 nM | IC50 (K562): 1000 to 10000 nM | IC50 (RPMI-8226): > 10000 nM | IC50 (OPM-2): 10 to 100 nM | IC50 (ARH77): > 10000 nM

COc1ccc(-c2nc(N3CCOCC3)c3sc(CN(C)c4ncc(C(=O)NO)cn4)cc3n2)cn1 [Compound 1, N-hydroxy-2-(((2-(6-methoxypyridin-3-yl)-4-morpholinothieno[3,2-d]pyrimidin-6-yl)methyl)(methyl)amino)pyrimidine-5-carboxamide]
IC50 (HCT116): < 10 nM | IC50 (SW403): < 10 nM | IC50 (SW620): < 10 nM | IC50 (SWI-116): < 10 nM | IC50 (H358): < 10 nM | IC50 (H292): < 10 nM | IC50 (H2122): < 10 nM | IC50 (H460): 10 to 100 nM | IC50 (A549): 10 to 100 nM | IC50 (MiaPaca2): 10 to 100 nM | IC50 (CFPAC-1): 10 to 100 nM | IC50 (PANC-1): 10 to 100 nM | IC50 (SW1990): < 10 nM | IC50 (HCC1500): < 10 nM | IC50 (HCC1806): 10 to 100 nM | IC50 (MDA-MB-231): 10 to 100 nM | IC50 (SKBr3): 10 to 100 nM | IC50 (BT474): < 10 nM | IC50 (UACC-893): 10 to 100 nM | IC50 (MDA-MB-453): < 10 nM | IC50 (MDA-MB-468): 10 to 100 nM | IC50 (MOLT-4): < 10 nM | IC50 (SUP-B15): < 10 nM | IC50 (HL-60): < 10 nM | IC50 (THP-1): 10 to 100 nM | IC50 (MV-4-11): < 10 nM | IC50 (Pfeiffer): < 10 nM | IC50 (Raji): 10 to 100 nM | IC50 (RL): < 10 nM | IC50 (Granta 519): < 10 nM | IC50 (Su-DHL4): < 10 nM | IC50 (Daudi): 10 to 100 nM | IC50 (MJ): < 10 nM | IC50 (HuT78): < 10 nM | IC50 (K562): 10 to 100 nM | IC50 (RPMI-8226): < 10 nM | IC50 (OPM-2): < 10 nM | IC50 (ARH77): < 10 nM
